From patent US10653780B2, “Amino lipids and methods for the delivery of nucleic acids” (ARBUTUS BIOPHARMA CORPORATION, priority 2008, dated 2020)
Like-named read-outs stand apart in the source and are kept apart here. Marks after values point to notes of the source that are not given here.

Tests used:
Factor VII (FVII) = conditions: for fold less active than DLinDMA: mouse FVII model; for survival: 15 mg/kg dose, mice
Excerpt: It is well established that in vivo RNAi silencing of specific hepatocyte proteins can be achieved following intravenous (i.v.) administration of siRNA's encapsulated in, or associated with, select nanoparticles designed for intracellular delivery. […] In this Example, rational design in combination with in vivo screening were applied to systematically modify the structure of DLinDMA and identify molecular features that enhance or reduce cationic lipid potency. More than 30 lipids were synthesized and incorporated into nucleic acid-lipid particles, i.e., lipid nanoparticles (LN) encapsulating an siRNA (LN-siRNA) targeting Factor VII (FVII), a blood clotting component synthesized and secreted by hepatocytes that is readily measured in serum. LN-siRNA systems were prepared using the same process, lipid molar ratios and particle size to minimize effects on activity resulting from formulation characteristics other than the cationic lipid. Each formulation was administered as a single bolus injection over a range of doses enabling an estimate of the siRNA dose required to reduce FVII serum protein concentrations by 50% after 24 h (ED50).
FVII activity was evaluated in FVII siRNA-treated animals at 24 hours after intravenous (bolus) injection in C57BL/6 mice or 48 hours after intravenous (bolus) injection in SD rats. Six to 8 week old, female C57Bl/6 mice were obtained from Charles River Laboratories and acclimated for one week prior to use in studies. Animals were held in a pathogen-free environment and all procedures involving animals were performed in accordance with the guidelines established by the Canadian Council on Animal Care.
LN-siRNA systems containing Factor VII siRNA were diluted to the appropriate concentrations in sterile phosphate buffered saline immediately prior to use, and the formulations were administered intravenously via the lateral tail vein in a total volume of 10 ml/kg. After 24 h, animals were anaesthetised with Ketamine/Xylazine and blood was collected by cardiac puncture and processed to serum (Microtainer Serum Separator Tubes; Becton Dickinson, Franklin Lakes, N.J., USA). Serum was tested immediately or stored at −70° C. for later analysis for serum Factor VII levels.
FVII was measured using a commercially available kit (Biophen FVII Kit™; Aniara Corp., Mason, Ohio), following the manufacturer's instructions at a microplate scale. FVII reduction was determined against untreated control animals, and the results were expressed as % Residual FVII. Five dose levels (0.1, 0.3, 0.5, 1.0, and 3.0 mg/kg) were typically used.
Serum Factor VII levels were determined using the colorimetric Biophen VII assay kit (Anaira, USA). Briefly, serially diluted pooled control serum (200%-3.125%) and appropriately diluted plasma samples from treated animals were analyzed using the Biophen VII kit according to manufacturer's instructions in 96-well, flat bottom, non-binding polystyrene assay plates (Corning, Corning, N.Y.) and absorbance at 405 nm was measured. A calibration curve was generated using the serial diluted control serum and used to determine levels of Factor VII in serum from treated animals.
Initial studies were performed in eight to 10 week old, female C57BL/6 mice in two stages. In the first stage, the activity associated with the benchmark lipid DLinDMA was compared to the activity associated with modified forms of DLinDMA.

[1] = Pharmacokinetic and liver analysis of Cy-3 labeled siRNA in LN-siRNA systems; format: in vivo
Excerpt: A fluorescently labeled siRNA (Cy-3 labeled luciferase siRNA, Alnylam Pharmaceuticals) was used to measure the siRNA content in plasma and liver after iv administration of LN-siRNA systems. The measurements were done by first extracting the Cy3-siRNA from the protein-containing biological matrix and then analyzing the amount of Cy-3 label in the extract by fluorescence. Two extraction methods were used, a chloroform/methanol mixture for the plasma samples and a commercial phenol/chloroform mixture (Trizol® reagent) with the tissue samples.
For plasma, blood was collected in EDTA-containing Vacutainer tubes and centrifuged at 1000×g for 10 min at 4-8° C. to isolate the plasma. The plasma was transferred to an eppendorf tube and either assayed immediately or stored in a −30° C. freezer. An aliquot of the plasma (100 μL maximum) was diluted to 500 μL with PBS (145 mM NaCl, 10 mM phosphate, pH 7.5), methanol (1.05 mL and chloroform (0.5 mL) was added, and the sample vortexed to obtain a clear, single phase solution. Water (0.5 mL) and chloroform (0.5 mL) was then added and the resulting emulsion sustained by mixing periodically for a minimum of 3 minutes. The mixture was centrifuged at 3000 rpm for 20 minutes and the top aqueous phase containing the Cy-3-label transferred to a new test tube. The fluorescence of the solution was measured using an SLM Fluorimeter at an excitation wavelength of 550 nm (2 nm bandwidth) and emission wavelength of 600 nm (16 nm bandwidth). A standard curve was generated by spiking aliquots of plasma from untreated animals with the Cy-3-siRNA containing formulation (0 to 15 μg/mL), and the sample processed as indicated above.
For liver, sections (400-500 mg) of tissue from saline-perfused animals was accurately weighed and homogenized in 1 mL of Trizol using Fastprep tubes. An aliquot of the homogenate (typically equivalent to 50 mg of tissue) was transferred to an eppendorf tube and additional Trizol added to 1 mL final. Chloroform (0.2 mL) was added, and the solution was mixed and incubated for 2-3 min before being centrifuged for 15 min at 12,000×g. An aliquot (0.5 mL) of the top Cy-3-containing aqueous phase was diluted with 0.5 mL of PBS and the fluorescence of the sample measured as described above.
The correlation between levels of siRNA delivered to the liver and FVII reduction was determined by encapsulating Cy-3 labeled siRNA in the selection of LN-siRNA systems covering a spectrum of in vivo activities shown in Table 8. Cy-3 fluorescence was measured in plasma and liver tissue 0.5 and 3.0 h post injection.

[2] = Table 7, siRNA dose reducing serum FVII protein by 50% at 24 h, PFV LN-siRNA 40/10/40/10
[3] = siRNA dose reducing serum FVII protein by 50% at 24 h, PFV LN-siRNA 40/10/40/10
[4] = Table 5, siRNA dose reducing serum FVII protein by 50% at 24 h, PFV LN-siRNA 40/10/40/10
[5] = Table 4, siRNA dose reducing serum FVII protein by 50% at 24 h, PFV LN-siRNA 40/10/40/10
[6] = Table 8, FVII ED50 of the LN-siRNA system
[7] = Table 3, siRNA dose reducing serum FVII protein by 50% at 24 h, single i.v. bolus, PFV LN-siRNA 40/10/40/10
[8] = Table 6, siRNA dose reducing serum FVII protein by 50% at 24 h, PFV LN-siRNA 40/10/40/10

CCCCCCCCCCCCCCCCCCC1(CCCCCCCCCCCCCCCCCC)OCC(CN(C)C)O1 (centres unmarked) [DS-K-DMA]
ED50 (Factor VII (FVII); [2]): ~8.0 mg/kg
ED50 (Factor VII (FVII); [3]): ~8.0 mg/kg

CCCCC/C=C\C/C=C\CCCCCCCC(=O)OCC(C[N+](C)(C)C)OC(=O)CCCCCCC/C=C\C/C=C\CCCCC.[Cl-] (centres unmarked) [DLinTAP.Cl]
ED50 (Factor VII (FVII); [4]): >25 mg/kg

CCCCCCCC/C=C\CCCCCCCC(=O)OCC(CN(C)C)OC(=O)CCCCCCC/C=C\CCCCCCCC (centres unmarked) [DODAP, 1,2-dioleoyl-3-dimethylammonium propane, reference compound]
ED50 (Factor VII (FVII); [4]): >25 mg/kg
fold less active than DLinDMA (Factor VII (FVII)): more than 25 fold

CCCCC/C=C\C/C=C\CCCCCCCCSCC(CN(C)C)SCCCCCCCC/C=C\C/C=C\CCCCC (centres unmarked) [DLin-S-DMA, 1 ,2-Dilinoleylthio-3-dimethylaminopropane]
ED50 (Factor VII (FVII); [5]): 12 to 25 mg/kg
ED50 (Factor VII (FVII); [6]): 12 to 25 mg/kg

CCCCCCCC/C=C\CCCCCCCCOCC(CN(C)C)OCCCCCCCC/C=C\CCCCCCCC (centres unmarked) [DODMA, reference compound]
ED50 (Factor VII (FVII); [4]): 2 to 5 mg/kg
fold less active than DLinDMA (Factor VII (FVII)): 2 to 5 fold

CCCCCCCC/C=C\CCCCCCCC(=O)OCC(C[N+](C)(C)C)OC(=O)CCCCCCC/C=C\CCCCCCCC.[Cl-] (centres unmarked) [DOTAP.Cl, 1,2-Dioleyloxy-3-trimethylaminopropane chloride salt, reference compound]
ED50 (Factor VII (FVII); [4]): >25 mg/kg

CCCCC/C=C\C/C=C\CCCCCCCCOCC(CN1CCOCC1)OCCCCCCCC/C=C\C/C=C\CCCCC (centres unmarked) [DLinMA, 1,2-Dilinoleyloxy-3-morpholinopropane]
ED50 (Factor VII (FVII); [7]): 12 to 25 mg/kg
ED50 (Factor VII (FVII); [6]): 12 to 25 mg/kg
ED50 (Factor VII (FVII); [3]): 12 to 25 mg/kg

CCCCCCCC/C=C\CCCCCCCCC1(CCCCCCCC/C=C\CCCCCCCC)OCC(CN(C)C)O1 (centres unmarked) [DO-K-DMA]
ED50 (Factor VII (FVII); [2]): ~1.0 mg/kg
ED50 (Factor VII (FVII); [3]): ~1.0 mg/kg

CCCCC/C=C\C/C=C\CCCCCCCCOCC(CN1CCN(C)CC1)OCCCCCCCC/C=C\C/C=C\CCCCC (centres unmarked) [DLinMPZ, 1,2-Dilinoleyloxy-3-(N-methylpiperazino) propane]
ED50 (Factor VII (FVII); [7]): 2 to 5 mg/kg
ED50 (Factor VII (FVII); [6]): 2 to 5 mg/kg

CCCCC/C=C\C/C=C\CCCCCCCCC1(CCCCCCCC/C=C\C/C=C\CCCCC)OC(CN(C)C)C(CN(C)C)O1 (centres unmarked) [DLin-K^2-DMA, 2,2-Dilinoleyl-4,5-bis(dimethylaminomethyl)-[1,3]-dioxolane]
ED50 (Factor VII (FVII); [8]): ~0.4 mg/kg

2,2-dilinoleyl-4-N-morpholino-[1,3]-dioxolane [DLin-K-MA]
FVII activity at maximum dose tested (Factor VII (FVII); 15 mg/kg maximum dose): inactive
ED50 (Factor VII (FVII); [8]): >15 mg/kg
FVII ED50 (Factor VII (FVII); Table 11): >15 mg/kg

CCCCC/C=C\C/C=C\CCCCCCCCC(CCCCCCCC/C=C\C/C=C\CCCCC)OC(=O)CCN(C)C [DLin-M-DMA, Dilinoleylmethyl 3-Dimethylaminopropionate]
ED50 (Factor VII (FVII); [2]): ~0.7 mg/kg
ED50 (Factor VII (FVII); [3]): ~0.7 mg/kg

CCCCC/C=C\C/C=C\CCCCCCCCNC(=O)OCC(CN(C)C)OC(=O)NCCCCCCCC/C=C\C/C=C\CCCCC (centres unmarked) [DLin-C-DAP, 1,2-Dilinoleylcarbamoyloxy-3-dimethylaminopropane]
Liver Cy-3 siRNA ([1]; 0.5 h post injection): 28.5 % injected dose
Plasma Cy-3 siRNA ([1]; 0.5 h post injection): 69.4 % injected dose
Liver Cy-3 siRNA ([1]; 3.0 h post injection): 13.5 % injected dose
Plasma Cy-3 siRNA ([1]; 3.0 h post injection): 19.0 % injected dose
ED50 (Factor VII (FVII); [5]): 12 to 25 mg/kg
ED50 (Factor VII (FVII); [6]): 12 to 25 mg/kg

CCCCC/C=C\C/C=C\CCCCCCCCC1(CCCCCCCC/C=C\C/C=C\CCCCC)OCC([N+](C)(C)C)O1.[Cl-] (centres unmarked) [DLin-K-TMA.Cl, 2,2-Dilinoleyl-4-trimethylamino-[1,3]-dioxolane Chloride]
FVII activity (Factor VII (FVII); 5 mg/kg): No activity observed
body weight (Factor VII (FVII); 5 mg/kg, data not shown): significant weight loss
FVII activity (Factor VII (FVII); 5 mg/kg, listed as DLin-K-TMA): No activity was observed
survival (Factor VII (FVII)): lethal
survival (Factor VII (FVII); listed as DLin-K-TMA): did not survive
ED50 (Factor VII (FVII); [8]): >5^a mg/kg

1,2-Dilinoleyloxy-3-trimethylaminopropane chloride [DLinTMA.Cl]
ED50 (Factor VII (FVII); [7]): 2 to 5 mg/kg

CCCCC/C=C\C/C=C\CCCCCCCCN(CCCCCCCC/C=C\C/C=C\CCCCC)CC(O)CO (centres unmarked) [DLinAP]
ED50 (Factor VII (FVII); [4]): 5 to 12 mg/kg
ED50 (Factor VII (FVII); [6]): 5 to 12 mg/kg
ED50 (Factor VII (FVII); [3]): 5 to 12 mg/kg

CCCCC/C=C\C/C=C\CCCCCCCCOC(COC(=O)CCCCCCC/C=C\C/C=C\CCCCC)CN(C)C (centres unmarked) [DLin-2-DMAP, 1-Linoleoyl-2-linoeyloxy-3-dimethylaminopropane]
Liver Cy-3 siRNA ([1]; 0.5 h post injection): 20.5 % injected dose
Plasma Cy-3 siRNA ([1]; 0.5 h post injection): 17.5 % injected dose
Liver Cy-3 siRNA ([1]; 3.0 h post injection): 2.5 % injected dose
Plasma Cy-3 siRNA ([1]; 3.0 h post injection): 8.8 % injected dose
ED50 (Factor VII (FVII); [5]): 5 to 12 mg/kg
ED50 (Factor VII (FVII); [6]): 5 to 12 mg/kg

CCCCC/C=C\C/C=C\CCCCCCCCOCC(COC(=O)CN(C)C)OCCCCCCCC/C=C\C/C=C\CCCCC (centres unmarked) [DLinDAC, 1,2-Dilinoleyloxy-3-(dimethylamino) acetoxypropane]
ED50 (Factor VII (FVII); [7]): 5 to 12 mg/kg
ED50 (Factor VII (FVII); [6]): 12 to 25 mg/kg

CCCC/C=C\CCCCCCCC(=O)OCC(CN(C)C)OC(=O)CCCCCCC/C=C\CCCC (centres unmarked) [DMDAP]
FVII activity at maximum dose tested (Factor VII (FVII); 10 mg/kg maximum dose): no activity was observed
ED50 (Factor VII (FVII); [4]): >10 mg/kg

CCCCC/C=C\C/C=C\CCCCCCCCC1(CCCCCCCC/C=C\C/C=C\CCCCC)OCC(CN(C)C)O1 (stereo not drawn) [DLin-K-DMA (+)]
ED50 (Factor VII (FVII); [3]): ~0.3 mg/kg

1,2-Dilinoleyloxy-3-(2-N,N-dimethylamino) ethoxypropane [DLin-EG-DMA]
ED50 (Factor VII (FVII); [7]): 5 to 12 mg/kg

CCCCCCCC/C=C\CCCCCCCCNC(=O)OCC(CN(C)C)OC(=O)NCCCCCCCC/C=C\CCCCCCCC (centres unmarked) [DO-C-DAP]
FVII activity at maximum dose tested (Factor VII (FVII); 10 mg/kg maximum dose): inactive
ED50 (Factor VII (FVII); [4]): >10 mg/kg
